In patent publication US20110190503A1, “Thiazolopyridin-2-yloxy-phenyl and thiazolopyrazin-2-yloxy-phenyl amines as modulators of leukotriene A4 hydrolase” (Janssen Pharmaceutical NV, priority 2008, published 2011):
pIC50: −log10 of the molar value.

The compounds below were run against T1, recombinant human LTA4 hydrolase (rhLTA4H) (Homo sapiens, UniProt P09960) (assay: Recombinant human LTA4 hydrolase assay for LTA4 hydrolase inhibitor activity). Conditions: rhLTA4H, LTA4 substrate, LTB4 by immunoassay; single determination or average; read-out: IC50.
T1 construct: made in house; host or cells: Spodoptera frugiperda (Sf-9) cells, recombinant baculovirus (pFastBac1)
T1 sequence (P09960 1-611): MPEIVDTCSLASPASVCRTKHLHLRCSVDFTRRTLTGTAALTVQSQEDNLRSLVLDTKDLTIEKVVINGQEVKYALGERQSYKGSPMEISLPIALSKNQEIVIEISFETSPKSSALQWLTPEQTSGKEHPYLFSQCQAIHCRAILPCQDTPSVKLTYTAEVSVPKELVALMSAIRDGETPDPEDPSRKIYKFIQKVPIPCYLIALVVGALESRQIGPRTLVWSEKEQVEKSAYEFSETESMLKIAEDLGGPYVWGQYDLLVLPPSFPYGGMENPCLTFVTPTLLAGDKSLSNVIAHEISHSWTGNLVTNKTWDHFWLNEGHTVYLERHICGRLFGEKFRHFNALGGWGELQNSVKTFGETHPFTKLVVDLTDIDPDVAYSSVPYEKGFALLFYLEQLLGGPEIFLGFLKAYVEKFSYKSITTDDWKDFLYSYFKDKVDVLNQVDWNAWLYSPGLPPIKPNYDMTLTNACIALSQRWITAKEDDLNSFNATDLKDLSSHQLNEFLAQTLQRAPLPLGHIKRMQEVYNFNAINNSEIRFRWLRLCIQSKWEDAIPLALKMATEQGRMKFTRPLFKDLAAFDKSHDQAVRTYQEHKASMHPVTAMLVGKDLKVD
Format: biochemical
Description: Assay 1: Recombinant Human LTA4 Hydrolase Assay for LTA4 Hydrolase Inhibitor Activity
Compounds of the present invention were tested for LTA4 hydrolase inhibitor activity against recombinant human LTA4 hydrolase (rhLTA4H). Vectors were prepared and used to express rhLTA4H essentially as follows: LTA4 hydrolase encoding DNA was amplified by polymerase chain reaction (PCR) using a human placental cDNA library as a template. […] The amplified 1.9 kb DNA fragment encoding LTA4 hydrolase was isolated and cloned into the pFastBac1 vector (Invitrogen). Recombinant baculovirus was generated as described by the manufacturer, and used to infect Spodoptera frugiperda (Sf-9) cells. […] The purified enzyme solution was adjusted to contain 0.29 mg/mL LTA4 hydrolase, 50 mM Tris (pH 8.0), 150 mM NaCl, 5 mM dithiothreitol, 50% glycerol, and EDTA-free Complete protease inhibitor cocktail (Roche).
LTA4 substrate was prepared from the methyl ester of LTA4 (Cayman Chemical) by treatment with 67 equiv of NaOH under nitrogen at rt for 40 min. The LTA4 substrate in its free acid form was kept frozen at −80° C. until needed. Each compound was diluted to different concentrations in assay buffer (from Assay Designs) containing 10% DMSO. A 25-μL aliquot of each compound dilution was incubated for 10 min at rt with an equal volume of assay buffer containing 10 ng of recombinant human LTA4H. The solution was then adjusted to 200 μL with assay buffer. […] Each reaction was carried out at rt for 30 min. The reaction was stopped by diluting 10 μL of the reaction mixture with 200 μL of assay buffer. LTB4 was quantified in the diluted sample by a commercially available enzyme-linked immunoassay (Cayman Chemical Co.), as recommended by the manufacturer. Positive controls, under essentially identical conditions but without addition of an inhibitor compound, and negative controls, containing all assay components except enzyme, were routinely run in each experiment. IC50 values were determined by nonlinear regression of the activity data at different compound concentrations using Graphpad Prism 4.0, one site binding competition.
The values presented here are the result of a single determination or an average of two or more determinations, as indicated in parentheses following each value. For compounds tested three or more times, the average value is followed by the standard deviation

| SMILES | pIC50 |
| --- | --- |
| c1ccc2c(c1)CN(CCOc1ccc(Oc3nc4ncccc4s3)cc1)C2 [Example 2, 2-{4-[2-(1,3-Dihydro-2H-isoindol-2-yl)ethoxy]phenoxy}[1,3]thiazolo[4,5-b]pyridine] | 6.96 |
| c1ccc2c(c1)CCCN2CCOc1ccc(Oc2nc3ncccc3s2)cc1 [Example 7, 1-{2-[4-([1,3]Thiazolo[4,5-b]pyridin-2-yloxy)phenoxy]ethyl}-1,2,3,4-tetrahydroquinoline] | 6.51 |
| c1ccc(OC2CCN(CCOc3ccc(Oc4nc5ncccc5s4)cc3)CC2)cc1 [Example 8, 2-{4-[2-(4-Phenoxypiperidin-1-yl)ethoxy]phenoxy}[1,3]thiazolo[4,5-b]pyridine] | 6.89 |
| c1ccc(CC2CCN(CCOc3ccc(Oc4nc5nccnc5s4)cc3)CC2)cc1 [Example 23, 2-{4-[2-(4-Benzylpiperidin-1-yl)ethoxy]phenoxy}[1,3]thiazolo[4,5-b]pyrazine] | 6.80 |
| OC1(c2ccc(Cl)cc2)CCN(CCOc2ccc(Oc3nc4nccnc4s3)cc2)CC1 [Example 25, 4-(4-Chlorophenyl)-1-{2-[4-([1,3]thiazolo[4,5-b]pyrazin-2-yloxy)phenoxy]ethyl}piperidin-4-ol] | 6.80 |
| OC1(c2cccc(C(F)(F)F)c2)CCN(CCOc2ccc(Oc3nc4cccnc4s3)cc2)CC1 [Example 37, 1-{2-[4-([1,3]Thiazolo[5,4-b]pyridin-2-yloxy)phenoxy]ethyl}-4-[3-(trifluoromethyl)phenyl]piperidin-4-ol] | 6.80 |
| OC1(c2ccc(Cl)cc2)CCN(CCOc2ccc(Oc3nc4cccnc4s3)cc2)CC1 [Example 39, 4-(4-Chlorophenyl)-1-{2-[4-([1,3]thiazolo[5,4-b]pyridin-2-yloxy)phenoxy]ethyl}piperidin-4-ol] | 6.59 |
| COc1ccccc1C1CCN(CCOc2ccc(Oc3nc4cccnc4s3)cc2)CC1 [Example 41, 2-(4-{2-[4-(2-Methoxyphenyl)piperidin-1-yl]ethoxy}phenoxy)[1,3]thiazolo[5,4-b]pyridine] | 6.47 |
| O=C1CCCN1C1CCN(CCOc2ccc(Oc3nc4cccnc4s3)cc2)CC1 [Example 43, 1-(1-{2-[4-([1,3]Thiazolo[5,4-b]pyridin-2-yloxy)phenoxy]ethyl}piperidin-4-yl)pyrrolidin-2-one] | 6.85 |
| OC1(c2ccccc2)CCN(CCc2ccc(Oc3nc4ncccc4s3)cc2)CC1 [Example 62, 4-Phenyl-1-{2-[4-([1,3]thiazolo[4,5-b]pyridin-2-yloxy)phenyl]ethyl}piperidin-4-ol] | 8.08 |
| c1ccc(CC2CCN(CCc3ccc(Oc4nc5ncccc5s4)cc3)CC2)cc1 [Example 63, 2-{4-[2-(4-Benzylpiperidin-1-yl)ethyl]phenoxy}[1,3]thiazolo[4,5-b]pyridine] | 7.80 |
| OCC1CN(Cc2ccc(Oc3nc4ncccc4s3)cc2)CCO1 (centres unmarked) [Example 82, {4-[4-([1,3]Thiazolo[4,5-b]pyridin-2-yloxy)benzyl]morpholin-2-yl}methanol] | 6.85 |
| O=C1CCCN1C1CCN(Cc2ccc(Oc3nc4cccnc4s3)cc2)CC1 [Example 112, 1-{1-[4-([1,3]Thiazolo[5,4-b]pyridin-2-yloxy)benzyl]piperidin-4-yl}pyrrolidin-2-one] | 6.43 |
| c1cc2nc(Oc3ccc(CN4CCCCC4)cc3)sc2cn1 [Example 114, 2-[4-(Piperidin-1-ylmethyl)phenoxy][1,3]thiazolo[5,4-c]pyridine] | 6.17 |
| CC(=O)N[C@H]1C[C@H]2CC[C@@H](C1)N2Cc1ccc(Oc2nc3ccncc3s2)cc1 [Example 115, meso-N-{(3-endo)-8-[4-([1,3]Thiazolo[5,4-c]pyridin-2-yloxy)benzyl]-8-azabicyclo[3.2.1]oct-3-yl}acetamide] | 6.49 |
| CC(=O)N1C[C@@H]2C[C@H]1CN2Cc1ccc(Oc2nc3ccc(C)nc3s2)cc1 [Example 118, 2-(4-{[(1S,4S)-5-Acetyl-2,5-diazabicyclo[2.2.1]hept-2-yl]methyl}phenoxy)-5-methyl[1,3]thiazolo[5,4-b]pyridine] | 5.43 |
| CC(=O)N1C[C@@H]2C[C@H]1CN2Cc1ccc(Oc2nc3cc(F)cnc3s2)cc1 [Example 123, 2-(4-{[(1S,4S)-5-Acetyl-2,5-diazabicyclo[2.2.1]hept-2-yl]methyl}phenoxy)-6-fluoro[1,3]thiazolo[5,4-b]pyridine] | 6.74 |
| CC(=O)N1C[C@@H]2C[C@H]1CN2Cc1ccc(Oc2nc3nc(C)ccc3s2)cc1 [Example 126, 2-(4-{[(1S,4S)-5-Acetyl-2,5-diazabicyclo[2.2.1]hept-2-yl]methyl}phenoxy)-5-methyl[1,3]thiazolo[4,5-b]pyridine] | 6.04 |

The remaining lines, values ahead:

| pIC50 | SMILES |
| --- | --- |
| 6.89 | CC(=O)N1C[C@@H]2C[C@H]1CN2CCOc1ccc(Oc2nc3cccnc3s2)cc1 [Example 20, 2-(4-{2-[(1S,4S)-5-Acetyl-2,5-diazabicyclo[2.2.1]hept-2-yl]ethoxy}phenoxy)[1,3]thiazolo[5,4-b]pyridine] |
| 6.80 | NC(=O)N1C[C@@H]2C[C@H]1CN2CCOc1ccc(Oc2nc3cccnc3s2)cc1 [Example 21, (1S,4S)-5-{2-[4-([1,3]Thiazolo[5,4-b]pyridin-2-yloxy)phenoxy]ethyl}-2,5-diazabicyclo[2.2.1]heptane-2-carboxamide] |
| 6.46 | NC(=O)C1CCN(CCOc2ccc(Oc3nc4cccnc4s3)cc2)CC1 [Example 35, 1-{2-[4-([1,3]Thiazolo[5,4-b]pyridin-2-yloxy)phenoxy]ethyl}piperidine-4-carboxamide] |
| 6.18 | O=C(O)C1CCN(CCOc2ccc(Oc3nc4cccnc4s3)cc2)CC1 [Example 44, 1-{2-[4-([1,3]Thiazolo[5,4-b]pyridin-2-yloxy)phenoxy]ethyl}piperidine-4-carboxylic acid] |
| 6.96 | CC(=O)N1C[C@@H]2C[C@H]1CN2CCc1ccc(Oc2nc3cccnc3s2)cc1 [Example 51, 2-(4-{2-[(1S,4S)-5-Acetyl-2,5-diazabicyclo[2.2.1]hept-2-yl]ethyl}phenoxy)[1,3]thiazolo[5,4-b]pyridine] |
| 6.72 | NC(=O)C1CCN(CCc2ccc(Oc3nc4cccnc4s3)cc2)CC1 [Example 67, 1-{2-[4-([1,3]Thiazolo[5,4-b]pyridin-2-yloxy)phenyl]ethyl}piperidine-4-carboxamide] |
| 6.55 | O=C1CCCN1C1CCN(CCc2ccc(Oc3nc4cccnc4s3)cc2)CC1 [Example 68, 1-(1-{2-[4-([1,3]Thiazolo[5,4-b]pyridin-2-yloxy)phenyl]ethyl}piperidin-4-yl)pyrrolidin-2-one] |
| 6.92 | CC(=O)N1CC2CN(CCc3ccc(Oc4nc5cccnc5s4)cc3)CC2C1 (centres unmarked) [Example 69, 2-{4-[2-(5-Acetylhexahydropyrrolo[3,4-c]pyrrol-2(1H)-yl)ethyl]phenoxy}[1,3]thiazolo[5,4-b]pyridine] |
| 6.80 | NC(=O)N1C[C@@H]2C[C@H]1CN2CCc1ccc(Oc2nc3cccnc3s2)cc1 [Example 78, (1S,4S)-5-{2-[4-([1,3]Thiazolo[5,4-b]pyridin-2-yloxy)phenyl]ethyl}-2,5-diazabicyclo[2.2.1]heptane-2-carboxamide] |
| 6.24 | NC(=O)C1CCN(Cc2ccc(Oc3nc4cccnc4s3)cc2)CC1 [Example 113, 1-[4-([1,3]Thiazolo[5,4-b]pyridin-2-yloxy)benzyl]piperidine-4-carboxamide] |
| 6.00 | O=C(O)C1CCN(Cc2ccc(Oc3nc4cccnc4s3)cc2)CC1 [Example 132, 1-[4-([1,3]Thiazolo[5,4-b]pyridin-2-yloxy)benzyl]piperidine-4-carboxylic acid] |
